# Molecular target: GCN2 (Homo sapiens, UniProt Q9P2K8)
# Assay: GCN2 enzymatic endpoint assay: phosphorylation of GFP-eIF2α measured by TR-FRET (Lanthascreen)
# Assay type: biochemical
# Conditions: GCN2 biochemical IC50; 4 nM GCN2, 2 μM ATP, 80 nM GFP-eIF2α, 90 min RT; read-out: GCN2 activity
# Outline: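 Read-out is the TR-FRET ratio of acceptor signal at 520 nm to terbium donor at 495 nm, rising with antibody binding to phosphorylated GFP-eIF2α. Endpoint format: 2 μM ATP, 80 nM substrate, 90 minutes at room temperature, EDTA stop.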
# Sequence of GCN2 (Q9P2K8 whole entry): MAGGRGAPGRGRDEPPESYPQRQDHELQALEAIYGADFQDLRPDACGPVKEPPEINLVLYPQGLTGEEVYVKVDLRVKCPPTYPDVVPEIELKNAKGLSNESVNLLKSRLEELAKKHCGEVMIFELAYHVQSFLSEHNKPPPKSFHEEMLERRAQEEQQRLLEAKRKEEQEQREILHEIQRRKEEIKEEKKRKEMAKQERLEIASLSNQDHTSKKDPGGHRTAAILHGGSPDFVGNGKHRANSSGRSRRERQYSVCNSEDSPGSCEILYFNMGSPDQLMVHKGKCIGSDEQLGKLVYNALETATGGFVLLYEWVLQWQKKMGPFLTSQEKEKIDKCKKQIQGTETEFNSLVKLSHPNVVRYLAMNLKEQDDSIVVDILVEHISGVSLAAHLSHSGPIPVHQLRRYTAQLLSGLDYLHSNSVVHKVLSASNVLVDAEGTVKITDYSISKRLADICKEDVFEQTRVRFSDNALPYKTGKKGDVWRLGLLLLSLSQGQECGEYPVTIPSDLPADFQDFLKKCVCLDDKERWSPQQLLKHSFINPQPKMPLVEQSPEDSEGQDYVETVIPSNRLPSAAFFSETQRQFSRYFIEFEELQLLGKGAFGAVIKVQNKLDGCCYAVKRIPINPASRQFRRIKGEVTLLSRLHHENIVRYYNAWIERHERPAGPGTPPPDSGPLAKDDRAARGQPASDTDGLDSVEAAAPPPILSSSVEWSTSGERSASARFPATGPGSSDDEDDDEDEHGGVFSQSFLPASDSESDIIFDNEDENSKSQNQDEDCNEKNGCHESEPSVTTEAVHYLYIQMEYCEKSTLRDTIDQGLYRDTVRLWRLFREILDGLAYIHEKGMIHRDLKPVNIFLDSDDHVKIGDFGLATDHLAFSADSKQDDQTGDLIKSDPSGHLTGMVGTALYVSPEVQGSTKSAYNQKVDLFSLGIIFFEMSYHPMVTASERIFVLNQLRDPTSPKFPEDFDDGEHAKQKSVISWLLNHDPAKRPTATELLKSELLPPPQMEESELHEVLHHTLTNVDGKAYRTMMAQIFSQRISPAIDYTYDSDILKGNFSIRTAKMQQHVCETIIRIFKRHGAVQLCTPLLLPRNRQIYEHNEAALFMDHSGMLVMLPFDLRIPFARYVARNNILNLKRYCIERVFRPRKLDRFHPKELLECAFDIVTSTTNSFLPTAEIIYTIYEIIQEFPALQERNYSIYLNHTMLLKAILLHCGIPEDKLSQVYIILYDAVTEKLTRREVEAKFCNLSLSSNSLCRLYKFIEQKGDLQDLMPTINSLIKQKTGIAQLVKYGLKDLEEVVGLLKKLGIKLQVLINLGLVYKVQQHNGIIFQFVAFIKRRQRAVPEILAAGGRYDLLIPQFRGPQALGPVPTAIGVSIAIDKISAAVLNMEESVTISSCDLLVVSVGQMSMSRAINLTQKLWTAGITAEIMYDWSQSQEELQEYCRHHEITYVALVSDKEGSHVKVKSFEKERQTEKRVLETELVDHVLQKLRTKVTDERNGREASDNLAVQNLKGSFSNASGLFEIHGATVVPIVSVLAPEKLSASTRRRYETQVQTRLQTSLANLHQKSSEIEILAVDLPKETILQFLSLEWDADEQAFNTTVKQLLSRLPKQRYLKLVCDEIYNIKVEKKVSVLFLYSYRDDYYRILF
row,IC50 [µM],SMILES
1,0.025 to 0.2,"COCCNC(=O)[C@@H]1CC[C@@H](Nc2ncc3c(Br)nn(-c4ccc5cnccc5c4)c3n2)C1 [Example 6, (1R,3R)-3-((3-bromo-1-(isoquinolin-6-yl)-1H-pyrazolo[3,4-d]pyrimidin-6-yl)amino)-N-(2-methoxyethyl)cyclopentane-1-carboxamide]"
2,0.025 to 0.2,"CNC(=O)[C@]1(C)CC[C@@H](Nc2ncc3c(Br)nn(-c4ccc5ncccc5c4)c3n2)C1 (single isomer, unassigned) [Example 18]"
3,0.025 to 0.2,"COCCNC(=O)[C@H]1C[C@H](Nc2ncc3c(Br)nn(-c4ccc5ncccc5c4)c3n2)C1 [Example 2, (1r,3r)-3-((3-bromo-1-(quinolin-6-yl)-1H-pyrazolo[3,4-d]pyrimidin-6-yl)amino)-N-(2-methoxyethyl)cyclobutane-1-carboxamide]"
4,< 0.025,"CNC(=O)[C@]1(C)CC[C@@H](Nc2ncc3c(Br)nn(-c4cc([C@@H](C)N)c5nccnc5c4)c3n2)C1 [Example 34, (1R,3R)-3-((1-(8-((R)-1-aminoethyl)quinoxalin-6-yl)-3-bromo-1H-pyrazolo[3,4-d]pyrimidin-6-yl)amino)-N,1-dimethylcyclopentane-1-carboxamide; 2,2,2-trifluoroacetic acid]"
5,0.025 to 0.2,"Cc1nnc(-c2ccc(-n3nc(Br)c4cnc(N[C@@H]5CC[C@@](C)(O)C5)nc43)cc2)s1 [Example 74, (1R,3R)-3-((3-bromo-1-(4-(5-methyl-1,3,4-thiadiazol-2-yl)phenyl)-1H-pyrazolo[3,4-d]pyrimidin-6-yl)amino)-1-methylcyclopentan-1-ol]"

# Same assay, conditions: tested as described in Example 77; compound and/or hydrochloride, dihydrochloride or trifluoroacetic acid salt; read-out: IC 50 Activity
row,IC50 [µM],SMILES
1,0.025 to 0.2,"CNC(=O)[C@]1(C)CC[C@@H](Nc2ncc3c(Br)nn(-c4ccc(-c5nnc(C)s5)c(CCN)c4)c3n2)C1 [(1R,3R)-3-[[1-[3-(2-aminoethyl)-4-(5-methyl-1,3,4-thiadiazol-2-yl)phenyl]-3-bromo-pyrazolo[3,4-d]pyrimidin-6-yl]amino]-N,1-dimethyl-cyclopentane-carboxamide]"
2,0.025 to 0.2,"CNC(=O)[C@@H]1CC[C@@H](Nc2ncc3c(Br)nn(-c4cc(Cl)cc(CO)c4)c3n2)C1 [(1R,3R)-3-[[3-bromo-1-[3-chloro-5-(hydroxy-methyl)phenyl]pyrazolo[3,4-d]pyrimidin-6-yl]amino]-N-methyl-cyclopentanecarboxamide]"
3,0.025 to 0.2,"CNC(=O)[C@@H]1CC[C@@H](Nc2ncc3c(Br)nn(-c4ccc5ncccc5c4)c3n2)C1 [(1R,3R)-3-[[3-bromo-1-(6-quinolyl)pyrazolo[3,4-d]pyrimidin-6-yl]amino]-N-methyl-cyclopentanecarboxamide]"
4,0.2 to 0.5,"O=S(=O)([C@@H]1CC[C@@H](Nc2ncc3c(Br)nn(-c4ccc5ncccc5c4)c3n2)C1)N1CCOCC1 [3-bromo-N-((1R,3R)-3-(morpholinosulfonyl)cyclopentyl)-1-(quinolin-6-yl)-1H-pyrazolo [3,4-d]pyrimidin-6-amine]"
5,0.025 to 0.2,"CNC(=O)[C@]1(C)CC[C@@H](Nc2ncc3c(Br)nn(-c4ccc5nc(CNCCC#N)ccc5c4)c3n2)C1 [(1R,3R)-3-[[3-bromo-1-[2-[(2-cyanoethylamino)methyl]-6-quinolyl]pyrazolo[3,4-d]pyrimidin-6-yl]amino]-N,1-dimethyl-cyclopentane-carboxamide]"
6,0.5 to 1,"COCCNC(=O)[C@H]1CC[C@H](Nc2ncc3c(Br)nn(-c4ccc5ncccc5c4)c3n2)C1 [(1S,3S)-3-((3-bromo-1-(quinolin-6-yl)-1H-pyrazolo[3,4-d]pyrimidin-6-yl)amino)-N-(2-methoxyethyl)cyclopentane-1-carboxamide]"
7,0.025 to 0.2,"CNC(=O)[C@]1(C)CC[C@@H](Nc2ncc3c(Br)nn(-c4ccc(-c5ccon5)cc4)c3n2)C1 [(1R,3R)-3-[[3-bromo-1-(4-isoxazol-3-ylphenyl)pyrazolo[3,4-d]pyrimidin-6-yl]amino]-N,1-dimethyl-cyclopentane-carboxamide]"
8,0.025 to 0.2,"CNC(=O)[C@]1(C)CC[C@@H](Nc2ncc3c(Br)nn(-c4ccc5ncc(NC(=O)CCOC)cc5c4)c3n2)C1 [(1R,3R)-3-[[3-bromo-1-[3-(3-methoxy-propanoylamino)-6-quinolyl]pyrazolo[3,4-d]pyrimidin-6-yl]amino]-N,1-dimethyl-cyclopentanecarboxamide]"
9,0.025 to 0.2,"CNC(=O)[C@@H]1CC[C@@H](Nc2ncc3c(Br)nn(-c4cnc5ncccc5c4)c3n2)C1 [(1R,3R)-3-[[3-bromo-1-(1,8-naphthyridin-3-yl)pyrazolo[3,4-d]pyrimidin-6-yl]amino]-N-methyl-cyclopentanecarboxamide]"
10,0.025 to 0.2,Cc1nnc(-c2ccc(-n3nc(Br)c4cnc(N[C@@H]5CCC(S(=O)(=O)NCCC#N)C5)nc43)cc2)s1 (stereo partly drawn)
11,0.5 to 1,"O=C([C@@H]1CC[C@@H](Nc2ncc3c(Br)nn(-c4cc(F)c5ncccc5c4)c3n2)C1)N1CCC(O)(C(=O)O)C1 (stereo partly drawn) [1-((1R,3R)-3-((3-bromo-1-(8-fluoroquinolin-6-yl)-1H-pyrazolo[3,4-d]pyrimidin-6-yl)amino)cyclopentane-1-carbonyl)-3-hydroxy-pyrrolidine-3-carboxylic acid]"
12,0.025 to 0.2,"CNC(=O)[C@]1(C)CC[C@@H](Nc2ncc3c(Br)nn(-c4ccc(-n5cccn5)cc4)c3n2)C1 [(1R,3R)-3-[[3-bromo-1-(4-pyrazol-1-ylphenyl)pyrazolo[3,4-d]pyrimidin-6-yl]amino]-N,1-dimethyl-cyclopentane-carboxamide]"
13,0.025 to 0.2,"CNC(=O)[C@]1(C)CC[C@@H](Nc2ncc3c(Br)nn(-c4ccc(-c5nnc(C)s5)c(CCC(=O)O)c4)c3n2)C1 [3-[5-[3-bromo-6-[[(1R,3R)-3-methyl-3-(methylcarbamoyl)cyclopentyl]amino]pyrazolo[3,4-d]pyrimidin-1-yl]-2-(5-methyl-1,3,4-thiadiazol-2-yl)phenyl] propanoic acid]"
14,< 0.025,"CNC(=O)[C@@H]1CC[C@@H](Nc2ncc3c(Br)nn(-c4cc(OC)c5ncccc5c4)c3n2)C1 [(1R,3R)-3-[[3-bromo-1-(8-methoxy-6-quinolyl)pyrazolo[3,4-d]pyrimidin-6-yl]amino]-N-methyl-cyclopentanecarboxamide]"
15,0.5 to 1,"CN(C)C(=O)N1CC[C@@H](Nc2ncc3c(Br)nn(-c4ccc5ncccc5c4)c3n2)C1 [(R)-3-((3-bromo-1-(quinolin-6-yl)-1H-pyrazolo [3,4-d]pyrimidin-6-yl)amino)-N,N-dimethyl-pyrrolidine-1-carboxamide]"
16,0.025 to 0.2,"CNC(=O)[C@]1(C)CC[C@@H](Nc2ncc3c(Br)nn(-c4cc(C#N)cc(OCCOC)c4)c3n2)C1 [(1R,3R)-3-[[3-bromo-1-[3-cyano-5-(2-methoxyethoxy)phenyl]pyrazolo[3,4-d]pyrimidin-6-yl]amino]-N,1-dimethyl-cyclopentanecarboxamide]"
17,0.025 to 0.2,"CC1(NC(=O)[C@@H]2CC[C@@H](Nc3ncc4c(Br)nn(-c5ccc6ncccc6c5)c4n3)C2)CCOC1 (stereo partly drawn) [(1R,3R)-3-((3-bromo-1-(quinolin-6-yl)-1H-pyrazolo[3,4-d]pyrimidin-6-yl)amino)-N-(3-methyltetrahydrofuran-3-yl)cyclopentane-1-carboxamide]"
18,0.025 to 0.2,"CC(=O)N1CCC(Nc2ncc3c(Br)nn(-c4cc(F)c5ncccc5c4)c3n2)CC1 [1-[4-[[3-bromo-1-(8-fluoro-6-quinolyl)pyrazolo[3,4-d]pyrimidin-6-yl]amino]-1-piperidyl]ethanone]"
19,< 0.025,"CC(C)NC(=O)[C@]1(C)CC[C@@H](Nc2ncc3c(Br)nn(-c4cc(F)c5ncccc5c4)c3n2)C1 [(1R,3R)-3-[[3-bromo-1-(8-fluoro-6-quinolyl)pyrazolo[3,4-d]pyrimidin-6-yl]amino]-N-isopropyl-1-methyl-cyclopentanecarboxamide]"
20,0.025 to 0.2,"CNC(=O)[C@]1(C)CC[C@@H](Nc2ncc3c(Br)nn(-c4cccc(NC(=O)c5cncnc5)c4)c3n2)C1 [N-[3-[3-bromo-6-[[(1R,3R)-3-methyl-3-(methylcarbamoyl)cyclopentyl]amino]pyrazolo[3,4-d]pyrimidin-1-yl]phenyl] pyrimidine-5-carboxamide]"
21,0.025 to 0.2,"CC(C)NC(=O)[C@@H]1CC[C@@H](Nc2ncc3c(Br)nn(-c4cc(C#N)c5ncccc5c4)c3n2)C1 [(1R,3R)-3-((3-bromo-1-(8-cyanoquinolin-6-yl)-1H-pyrazolo[3,4-d]pyrimidin-6-yl)amino)-N-isopropylcyclopentane-1-carboxamide]"
22,< 0.025,"O=C1CN(C(=O)[C@@H]2CC[C@@H](Nc3ncc4c(Br)nn(-c5cc(F)c6ncccc6c5)c4n3)C2)CC(=O)N1 [4-((1R,3R)-3-((3-bromo-1-(8-fluoroquinolin-6-yl)-1H-pyrazolo[3,4-d]pyrimidin-6-yl)amino)cyclopentane-1-carbonyl)piperazine-2,6-dione]"
23,0.025 to 0.2,"CNC(=O)[C@]1(C)CC[C@@H](Nc2ncc3c(Br)nn(-c4ccc(-c5ncco5)c(C(C)(C)CN)c4)c3n2)C1 [(1R,3R)-3-[[1-[3-(2-amino-1,1-dimethyl-ethyl)-4-oxazol-2-yl-phenyl]-3-bromo-pyrazolo[3,4-d]pyrimidin-6-yl]amino]-N,1-dimethyl-cyclopentanecarboxamide]"
24,0.025 to 0.2,"Cc1nnc(-c2ccc(-n3nc(Br)c4cnc(N[C@@H]5CC[C@@H](NC(=O)C(C)C)C5)nc43)cc2)s1 [N-[(1R,3R)-3-[[3-bromo-1-[4-(5-methyl-1,3,4-thiadiazol-2-yl)phenyl]pyrazolo [3,4-d]pyrimidin-6-yl]amino]cyclopentyl]-2-methyl-propanamide]"

row,SMILES,IC50 [µM]
1,CNC(=O)[C@]1(CCOC)CC[C@@H](Nc2ncc3c(Br)nn(-c4ccc(-c5nnc(C)s5)cc4)c3n2)C1,0.025 to 0.2
2,Cc1nnc(-c2ccc(-n3nc(Br)c4cnc(N[C@@H]5CC[C@@](C)(N)C5)nc43)cc2)s1,0.025 to 0.2
3,CNC(=O)[C@]1(C)CC[C@@H](Nc2ncc3c(Br)nn(-c4ccc5nc(N6CCN(C(C)=O)CC6)ncc5c4)c3n2)C1,0.025 to 0.2
4,Cc1nnc(-c2ccc(-n3nc(Br)c4cnc(N[C@@H]5CC[C@@H](NC(=O)[C@H]6CCCCN6)C5)nc43)cc2)s1,0.025 to 0.2

# Reference: patent publication US11046699B2, “Pyrazolo-pyrimidin-amino-cycloalkyl compounds and their therapeutic uses” (RAPT THERAPEUTICS, INC., priority 2018, dated 2021)
